Test results: patent publication US8575178B2, “Isothiazolo-pyrimidinedione derivatives as TRPA1 modulators” (Glenmark Pharmaceuticals S.A., priority 2009, dated 2013)

Key:
rat TRPA1 = molecular target: T1, rat TRPA1 (Rattus norvegicus, UniProt Q6RI86); experiment: 45Calcium uptake assay, inhibition of AITC induced calcium uptake in rat TRPA1 expressing CHO cells; type: cell-based; conditions: AITC 10 μM; for inhibition at 1 µM: 1.0 μM compound, read-out: rat TRPA1 Percentage inhibition at 1.0 μM; for inhibition at 10 µM: 10.0 μM compound, read-out: rat TRPA1 Percentage inhibition at 10.0 μM
T1 construct: expressed in transfected cells; host or cells: CHO cells (Zeocin selection)
T1 sequence (Q6RI86 whole entry): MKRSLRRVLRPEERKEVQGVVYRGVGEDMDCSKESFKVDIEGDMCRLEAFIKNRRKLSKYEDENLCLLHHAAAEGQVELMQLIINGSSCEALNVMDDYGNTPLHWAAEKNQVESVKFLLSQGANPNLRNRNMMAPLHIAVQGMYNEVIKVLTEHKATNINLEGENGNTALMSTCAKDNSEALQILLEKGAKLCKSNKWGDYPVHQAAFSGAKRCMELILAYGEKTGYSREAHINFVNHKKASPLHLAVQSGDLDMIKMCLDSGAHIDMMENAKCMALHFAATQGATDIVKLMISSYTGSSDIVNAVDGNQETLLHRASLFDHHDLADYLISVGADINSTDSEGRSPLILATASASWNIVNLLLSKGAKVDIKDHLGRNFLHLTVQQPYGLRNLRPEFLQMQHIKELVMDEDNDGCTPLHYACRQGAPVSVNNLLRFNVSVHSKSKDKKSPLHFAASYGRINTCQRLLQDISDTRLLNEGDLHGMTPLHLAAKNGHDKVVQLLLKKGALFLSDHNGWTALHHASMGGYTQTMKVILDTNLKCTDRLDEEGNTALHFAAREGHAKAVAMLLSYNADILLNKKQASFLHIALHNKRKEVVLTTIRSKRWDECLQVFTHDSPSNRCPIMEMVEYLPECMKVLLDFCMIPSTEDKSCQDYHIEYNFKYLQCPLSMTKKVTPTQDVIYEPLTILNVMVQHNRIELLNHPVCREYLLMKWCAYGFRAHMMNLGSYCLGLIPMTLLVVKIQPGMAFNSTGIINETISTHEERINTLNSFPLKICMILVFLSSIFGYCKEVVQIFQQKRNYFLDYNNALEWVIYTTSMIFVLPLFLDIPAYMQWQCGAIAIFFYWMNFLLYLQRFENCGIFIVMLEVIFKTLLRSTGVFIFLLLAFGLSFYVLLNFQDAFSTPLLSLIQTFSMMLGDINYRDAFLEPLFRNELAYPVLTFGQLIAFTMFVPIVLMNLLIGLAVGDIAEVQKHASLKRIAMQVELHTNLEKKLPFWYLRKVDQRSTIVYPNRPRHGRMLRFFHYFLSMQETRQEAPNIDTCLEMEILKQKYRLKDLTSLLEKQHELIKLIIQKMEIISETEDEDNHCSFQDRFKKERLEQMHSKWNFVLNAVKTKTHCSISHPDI
Source text: (§1) The illustrative examples of the present invention are screened for TRPA1 activity according to a modified procedure described in (a) Tóth, A. et al. Life Sciences, 2003, 73, 487-498. (b) McNamara C, R. et al, Proc. Natl. Acad. Sci. U.S.A., 2007, 104, 13525-13530. The screening of the compounds can be carried out by other methods and procedures known to persons skilled in the art.
(§2) Screening for TRPA1 Antagonist Using the ^45Calcium Uptake Assay:
(§3) The inhibition of TRPA1 receptor activation was measured as inhibition of allyl isothiocyanate (AITC) induced cellular uptake of radioactive calcium.
(§4) Test compounds were dissolved in 100% DMSO to prepare 10 mM stock and then diluted using plain medium with 0.1% BSA and 1.8 mM CaCl2 to get the desired concentration. The final concentration of DMSO in the reaction was 0.5% (v/v). Human TRPA1 expressing CHO cells were grown in F-12 DMEM medium with 10% FBS, 1% penicillin-streptomycin solution, and 400 μg/ml of G-418. Rat TRPA1 expressing CHO cells were grown in F-12 DMEM medium with 10% FBS, 1% penicillin-streptomycin solution, and 400 μg/ml of Zeocin. Cells were seeded 24 h prior to the assay in 96 well plates so as to get ˜50,000 cells per well on the day of experiment. Cells were treated with the test compounds for 10 minutes followed by the addition of AITC at a final concentration of 30 μM (for human TRPA1) and/or 10 μM (for rat TRPA1) and 5 μCi/ml ^45Ca^+2 for 3 minutes. Cells were washed and lysed using a buffer containing 1% Triton X-100, 0.1% deoxycholate and 0.1% SDS. Radioactivity in the lysate was measured in a Packard TopCount after addition of liquid scintillant. (Toth et al, Life Sciences (2003) 73, 487-498; McNamara C R et al, Proceedings of the National Academy of Sciences, (2007) 104, 13525-13530).
(§5) Concentration response curves were plotted as a % of maximal response obtained in the absence of test antagonist. IC50 values can be calculated from concentration response curve by nonlinear regression analysis using GraphPad PRISM software.

human TRPA1 = molecular target: T2, human TRPA1 (Homo sapiens, UniProt O75762); experiment: 45Calcium uptake assay, inhibition of AITC induced calcium uptake in human TRPA1 expressing CHO cells; type: cell-based; conditions: AITC 30 μM; for inhibition at 1 µM: 1.0 μM compound, read-out: human TRPA1 Percentage inhibition at 1.0 μM; for inhibition at 10 µM: 10.0 μM compound, read-out: human TRPA1 Percentage inhibition at 10.0 μM
T2 construct: expressed in transfected cells; host or cells: CHO cells (G-418 selection)
T2 sequence (O75762 whole entry): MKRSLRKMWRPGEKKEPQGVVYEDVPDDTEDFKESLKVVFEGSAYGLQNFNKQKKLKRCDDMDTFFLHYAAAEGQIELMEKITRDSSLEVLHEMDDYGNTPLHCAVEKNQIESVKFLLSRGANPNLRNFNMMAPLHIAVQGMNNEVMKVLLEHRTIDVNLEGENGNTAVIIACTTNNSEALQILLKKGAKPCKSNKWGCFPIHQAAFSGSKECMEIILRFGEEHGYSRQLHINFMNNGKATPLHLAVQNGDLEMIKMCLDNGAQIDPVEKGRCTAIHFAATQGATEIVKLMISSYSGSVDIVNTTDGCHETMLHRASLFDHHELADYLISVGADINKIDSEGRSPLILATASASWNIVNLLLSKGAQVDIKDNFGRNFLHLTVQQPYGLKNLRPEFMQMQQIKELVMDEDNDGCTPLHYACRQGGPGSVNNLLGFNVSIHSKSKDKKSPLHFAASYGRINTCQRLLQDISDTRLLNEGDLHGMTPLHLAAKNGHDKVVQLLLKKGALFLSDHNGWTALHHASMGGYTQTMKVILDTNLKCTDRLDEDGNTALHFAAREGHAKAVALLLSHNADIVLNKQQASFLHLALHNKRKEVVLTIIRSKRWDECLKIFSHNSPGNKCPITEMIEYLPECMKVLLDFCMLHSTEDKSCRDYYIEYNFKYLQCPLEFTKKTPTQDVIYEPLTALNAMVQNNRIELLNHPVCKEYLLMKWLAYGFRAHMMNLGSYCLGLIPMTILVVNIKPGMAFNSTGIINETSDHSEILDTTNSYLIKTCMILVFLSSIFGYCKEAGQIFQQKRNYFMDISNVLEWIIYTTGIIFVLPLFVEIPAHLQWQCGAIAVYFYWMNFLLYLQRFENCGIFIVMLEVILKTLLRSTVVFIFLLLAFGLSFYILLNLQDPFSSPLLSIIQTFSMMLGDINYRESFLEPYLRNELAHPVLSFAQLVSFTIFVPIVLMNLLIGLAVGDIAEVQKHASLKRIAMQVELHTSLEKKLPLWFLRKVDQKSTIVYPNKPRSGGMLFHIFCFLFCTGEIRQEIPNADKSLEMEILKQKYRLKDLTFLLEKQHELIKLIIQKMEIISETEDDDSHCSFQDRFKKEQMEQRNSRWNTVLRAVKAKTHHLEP
Source text: as §1, §2, §3, §4, §5

| inhibition at 1 µM (rat TRPA1) | inhibition at 10 µM (rat TRPA1) | IC50 (rat TRPA1) | inhibition at 1 µM (human TRPA1) | inhibition at 10 µM (human TRPA1) | IC50 (human TRPA1) | SMILES |
| --- | --- | --- | --- | --- | --- | --- |
| 79.4% | 100% | > 100 nM | 100% | 99.5% | < 50 nM | Cn1c(=O)c2c(CC(=O)Nc3nc(-c4ccc(OC(F)(F)F)c(F)c4)cs3)snc2n(C)c1=O [Example 7, 2-(5,7-Dimethyl-4,6-dioxo-4,5,6,7-tetrahydro[1,2]thiazolo[3,4-c]pyrimidin-3-yl)-N-{4-[3-fluoro-4-(trifluoromethoxy)phenyl]-1,3-thiazol-2-yl}acetamide] |
| 35.2% | 68.4% | – | 99.9% | 100% | – | Cn1c(=O)c2c(CC(=O)Nc3nc(-c4cc(F)c(C(F)(F)F)c(F)c4)cs3)snc2n(C)c1=O [Example 10, N-{4-[3,5-Difluoro-4-(trifluoromethyl)phenyl]-1,3-thiazol-2-yl}-2-(5,7-dimethyl-4,6-dioxo-4,5,6,7-tetrahydro[1,2]thiazolo[3,4-d]pyrimidin-3-yl)acetamide] |
| 94.7% | 94.1% | – | 98.4% | 98.1% | < 50 nM | Cn1c(=O)c2c(CC(=O)Nc3nc(-c4ccc(F)c(C(F)(F)F)c4F)cs3)snc2n(C)c1=O [Example 9, N-{4-[2,4-Difluoro-3-(trifluoromethyl)phenyl]-1,3-thiazol-2-yl}-2-(5,7-dimethyl-4,6-dioxo-4,5,6,7-tetrahydro[1,2]thiazolo[3,4-d]pyrimidin-3-yl)acetamide] |
| 100% | 99.3% | 50 to 100 nM | 95.6% | 99.7% | < 50 nM | Cn1c(=O)c2c(CC(=O)Nc3nc(-c4ccc(OC(F)(F)F)c(Cl)c4)cs3)nsc2n(C)c1=O [Example 30, 2-(5,7-Dimethyl-4,6-dioxo-4,5,6,7-tetrahydro[1,2]thiazolo[5,4-d]pyrimidin-3-yl)-N-{4-[3-chloro-4-(trifluoromethoxy)phenyl]-1,3-thiazol-2-yl}acetamide] |
| 98.8% | 100% | 50 to 100 nM | 99.9% | 100% | < 50 nM | Cn1c(=O)c2c(CC(=O)Nc3nc(-c4ccc(OC(F)(F)F)c(F)c4)cs3)nsc2n(C)c1=O [Example 25, 2-(5,7-Dimethyl-4,6-dioxo-4,5,6,7-tetrahydro[1,2]thiazolo[5,4-d]pyrimidin-3-yl)-N-{4-[3-fluoro-4-(trifluoromethoxy)phenyl]-1,3-thiazol-2-yl}acetamide] |
| 34.9% | 43.8% | – | 99.7% | 100% | < 50 nM | Cn1c(=O)c2c(CC(=O)Nc3nc(-c4ccc(Cl)cc4)cs3)snc2n(C)c1=O [Example 2, N-[4-(4-Chlorophenyl)-1,3-thiazol-2-yl]-2-(5,7-dimethyl-4,6-dioxo-4,5,6,7-tetrahydro[1,2]thiazolo[3,4-d]pyrimidin-3-yl)acetamide] |
| 100% | 100% | < 50 nM | 98.1% | 99.6% | < 50 nM | Cn1c(=O)c2c(CC(=O)Nc3nc(-c4ccc(Cl)c(C(F)(F)F)c4)cs3)nsc2n(C)c1=O [Example 29, 2-(5,7-Dimethyl-4,6-dioxo-4,5,6,7-tetrahydro[1,2]thiazolo[5,4-d]pyrimidin-3-yl)-N-{4-[4-chloro-3-(trifluoromethyl)phenyl]-1,3-thiazol-2-yl}acetamide] |
| 94.6% | 99.5% | > 100 nM | 98.4% | 99.2% | < 50 nM | Cn1c(=O)c2c(CC(=O)Nc3nc(-c4ccc(Cl)cc4)cs3)nsc2n(C)c1=O [Example 12, N-[4-(4-Chlorophenyl)-1,3-thiazol-2-yl]-2-(5,7-dimethyl-4,6-dioxo-4,5,6,7-tetrahydro[1,2]thiazolo[5,4-d]pyrimidin-3-yl)acetamide] |
| 100% | 99.8% | 50 to 100 nM | 99.6% | 100% | < 50 nM | Cn1c(=O)c2c(CC(=O)Nc3nc(-c4ccc(F)c(OC(F)(F)F)c4)cs3)nsc2n(C)c1=O [Example 24, 2-(5,7-Dimethyl-4,6-dioxo-4,5,6,7-tetrahydro[1,2]thiazolo[5,4-d]pyrimidin-3-yl)-N-{4-[4-fluoro-3-(trifluoromethoxy)phenyl]-1,3-thiazol-2-yl}acetamide] |
| 97.3% | 99.3% | > 100 nM | 99.3% | 99.6% | < 50 nM | Cn1c(=O)c2c(CC(=O)Nc3nc(-c4ccc(Cl)c(C(F)(F)F)c4)cs3)snc2n(C)c1=O [Example 6, 2-(5,7-Dimethyl-4,6-dioxo-4,5,6,7-tetrahydro[1,2]thiazolo[3,4-c]pyrimidin-3-yl)-N-{4-[4-chloro-3-(trifluoromethyl)phenyl]-1,3-thiazol-2-yl}acetamide] |
| 99.3% | 99.3% | – | 99.7% | 99.8% | < 50 nM | Cn1c(=O)c2c(CC(=O)Nc3nc(-c4cccc(C(F)(F)F)c4)cs3)nsc2n(C)c1=O [Example 13, 2-(5,7-Dimethyl-4,6-dioxo-4,5,6,7-tetrahydro[1,2]thiazolo[5,4-d]pyrimidin-3-yl)-N-{4-[3-(trifluoromethyl)phenyl]-1,3-thiazol-2-yl}acetamide] |
| 81.8% | 99.6% | > 100 nM | 97.8% | 99.8% | < 50 nM | Cn1c(=O)c2c(CC(=O)Nc3nc(-c4ccc(F)c(F)c4)cs3)nsc2n(C)c1=O [Example 27, N-[4-(3,4-Difluorophenyl)-1,3-thiazol-2-yl]-2-(5,7-dimethyl-4,6-dioxo-4,5,6,7-tetrahydro[1,2]thiazolo[5,4-d]pyrimidin-3-yl)acetamide] |
